Measurements from ChEMBL document CHEMBL1130453, “Synthesis and biological activity of a new anti-factor Xa pentasaccharide with a C-interglycosidic bond” (Bioorg Med Chem Lett, 1997).

Assays:
Antithrombin-III = Antithrombin-III (Homo sapiens, UniProt P01008); assay: In vitro binding affinity against antithrombin III (AT III) was determined by fluorescence spectroscopy
[1] = biological target: Coagulation factor X (Homo sapiens) (UniProt P00742); assay: Anti-factor Xa activity by amidolytic method.
Coagulation factor X (Homo sapiens), sequence (P00742 41-179 limits assumed): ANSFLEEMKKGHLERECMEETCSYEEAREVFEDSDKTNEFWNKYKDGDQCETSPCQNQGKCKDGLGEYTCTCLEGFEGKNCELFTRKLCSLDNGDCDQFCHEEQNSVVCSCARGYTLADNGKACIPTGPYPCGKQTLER
Coagulation factor X (Homo sapiens), sequence (P00742 235-488 limits assumed): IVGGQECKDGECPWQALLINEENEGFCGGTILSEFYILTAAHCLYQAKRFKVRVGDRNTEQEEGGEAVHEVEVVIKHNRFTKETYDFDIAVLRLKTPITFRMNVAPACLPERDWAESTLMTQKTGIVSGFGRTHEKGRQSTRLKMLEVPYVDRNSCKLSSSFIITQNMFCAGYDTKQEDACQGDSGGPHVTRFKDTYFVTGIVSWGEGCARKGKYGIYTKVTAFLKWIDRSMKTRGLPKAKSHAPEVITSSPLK

Antithrombin-III, sequence (P01008 whole entry): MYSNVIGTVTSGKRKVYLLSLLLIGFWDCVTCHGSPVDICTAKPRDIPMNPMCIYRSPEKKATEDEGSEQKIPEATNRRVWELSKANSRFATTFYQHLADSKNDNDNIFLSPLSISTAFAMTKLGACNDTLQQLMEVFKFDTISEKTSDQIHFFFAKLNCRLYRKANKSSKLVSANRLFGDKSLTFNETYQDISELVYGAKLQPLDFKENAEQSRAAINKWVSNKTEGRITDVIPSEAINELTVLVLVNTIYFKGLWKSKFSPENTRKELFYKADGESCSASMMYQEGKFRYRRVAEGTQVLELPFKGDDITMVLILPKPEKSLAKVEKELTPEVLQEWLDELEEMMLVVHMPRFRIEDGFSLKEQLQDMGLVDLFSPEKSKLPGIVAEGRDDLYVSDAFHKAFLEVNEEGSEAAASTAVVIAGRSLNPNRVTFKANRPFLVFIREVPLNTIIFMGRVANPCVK

SMILES | Kd (Antithrombin-III) [nM] | Anti-Factor Xa activity [1] [U/mg]
CO[C@H]1O[C@@H](COS(=O)(=O)O)[C@@H](O[C@@H]2O[C@@H](C(=O)O)[C@H](O[C@H]3O[C@@H](COS(=O)(=O)O)[C@@H](O[C@@H]4O[C@@H](C(=O)O)[C@@H](C[C@H]5O[C@@H](COS(=O)(=O)O)[C@@H](OC)[C@H](OC)[C@@H]5OC)[C@H](OC)[C@@H]4OC)[C@H](OS(=O)(=O)O)[C@@H]3OS(=O)(=O)O)[C@H](OC)[C@H]2OC)[C@H](OS(=O)(=O)O)[C@@H]1OS(=O)(=O)O | 2.8 | 880
CO[C@H]1O[C@@H](COS(=O)(=O)O)[C@@H](O[C@@H]2O[C@@H](C(=O)O)[C@H](O[C@H]3O[C@@H](COS(=O)(=O)O)[C@@H](O[C@@H]4O[C@@H](C(=O)O)[C@@H](O[C@H]5O[C@@H](COS(=O)(=O)O)[C@@H](OC)[C@H](OC)[C@@H]5OC)[C@H](OC)[C@@H]4OC)[C@H](OS(=O)(=O)O)[C@@H]3OS(=O)(=O)O)[C@H](OC)[C@H]2OC)[C@H](OS(=O)(=O)O)[C@@H]1OS(=O)(=O)O | – | 1180
